Key:
[1] = system: L6 myotubes; test: cellular glucose uptake ([3H]-2DG); format: cell-based; details: Ins 100 nM, Met 1 mM, UA 10 uM, RES 100 uM
Description: L6 myotubes were incubated with UA (10 μM) at different time points.

[2] = system: NFKB; test: Luciferase assay for NFKB activity in HaCaT cells; format: cell-based, human
Description: Luciferase assay for NFKB activity: HaCaT cells were transfected with the NFKB Cignal Reporter Assay Kit from Qiagen, using Attractene transfection reagent, per manufacturer's instructions. Cells were plated at 1.5×10^4 cells/well in 96 well plates during the transfection. After 16 hr transfection, cells were resupplied with OptiMEM containing 0.5% FBS, 1% non-essential amino acids, 50 U/ml penicillin, and […] for 24 hr. Cells were pretreated with various doses of RES or vehicle for 1 hr, followed by UA or vehicle for 1 hr. TNFα at 10 ng/ml was added and cells were incubated for 4 hr. Luminescence of both the TNFα-induced firefly luciferase and the transfection control Renilla luciferase were measured using the Dual-Luciferase Reporter Assay System from Promega and quantified using a Biotek Synergy HT spectrophotometer.

[3] = system: NFKB subunit p65; test: TNFα-mediated p65 phosphorylation in HaCaT keratinocytes, Western blot; format: cell-based, human; details: preliminary experiments, RES 100 and 200 μM, UA 10 and 20 μM, single agents
Description: Western blotting: HaCaT cells were treated with sub-optimal doses of RES, UA, or RES+UA and stimulated with 10 ng/ml human tumor necrosis factor alpha (TNFα) for 30 min. Cells were scraped into lysis buffer containing 1% Triton X-100, 0.5% IGEPAL, 0.05 M TrisHCl and 0.1 M NaCl as well as protease/phosphatase inhibitors and 5 mM EDT A. For in vivo studies, whole skin was placed on glass over ice and epidermis was removed by scraping and placed in RIPA buffer with protease/phosphatase inhibitors. Lysates were homogenized and proteins were extracted by centrifugation. Twenty micrograms of protein was separated on Bis-Tris gels and transferred onto PVDF membranes. Membranes were blocked in 5% dry milk or BSA and incubated with primary antibodies overnight at 4° C. Membranes were incubated with corresponding HRP-conjugated secondary antibodies for one hour and developed.
As mentioned before, NFKB activity is important during the tumor promotion phase.

[4] = system: SENCAR mice; test: TPA-mediated epidermal thickening (hyperplasia) in mouse skin; format: in vivo; details: for 2 μg TPA-mediated epidermal thickening: topical 1, 2, or 3 μmol total dose, single agent
Description: (§1) Animals and treatment: Female SENCAR mice, 6-7 weeks old, were purchased from NCI Frederick (Frederick, Md.). The dorsal skin of SENCAR mice were shaved and treated topically twice per week for 2 weeks with 200 μL acetone vehicle or 1-3 μmol UA, 1-3 μmol RES, or an equimolar combination of RES and UA. Each treatment was followed 30 minutes later with topical application of 200 μL acetone vehicle or 1-2 μg of the tumor promoter TPA. In vivo sample collection: Animals were sacrificed 6 hr after the final TPA treatment for Western blotting and 48 hr after the final TPA treatment for histology. For immunohistochemical (IHC) analysis of epidermal proliferation five mice per group were i.p. injected with 100 mg/kg Bromodeoxyuridine (BrdU) in PBS 30 min prior to sacrifice. 1 cm^2 of mouse skin from treated areas was fixed in formalin and paraffin embedded to be analyzed via IHC. Immunohistochemistry (IHC): Slides were immunostained with anti-BrdU antibody. The percentage of BrdU-positive cells in the basal cell layer was determined from at least 10 randomly selected sites per slide (5 mice/group). In addition, the epidermal thickness of each skin sample was also measured at 10 random sites for 5 mice/group, using Image Pro-Discovery from Media Cybernetics (Bethesda, Md.).

[5] = system: Ca3/7 mouse squamous carcinoma cells; test: MTT assay for cell viability, Ca3/7; format: cell-based; details: Ca3/7 cells, 200 μM RES
Description: MTT assay for cell viability: Cells were plated at 1.5×10^4 cells/well on 96-well plates. Cells were pretreated with RES or 0.1% vehicle for 1 hr followed by various doses of UA or 0.1% DMSO vehicle for 24 hr. In the experiment with A549 cells, 5.0×10^3 cells/well were plated, and cells were treated with UA or 0.1% DMSO for 48 hr after 1 hr pretreatment with RES or vehicle. MTT reagent (0.5 mg/ml) was added, and cells were incubated for an additional 2.5 hr. Media was removed and formazan crystals were dissolved with 100 μl DMSO. Plates were measured at 570 nm with background subtraction at 650 nm, using a Biotek Synergy HT spectrophotometer. Statistical Analyses: Differences between individual groups were determined by ANOVA. IC50 values were calculated with GraphPad Prism. Resistance Reversal (RR) was calculated by dividing the IC50 value of the UA+vehicle group by the IC50 value of the UA+RES group.

[6] = system: SENCAR mice; test: TPA-induced epidermal proliferation (BrdU IHC) in mouse skin; format: in vivo
Description: as §1

[7] = system: AMPK; test: AMPK phosphorylation in L6 myotubes; format: cell-based; details: 30 min, UA 10 μM, RES 100 μM, alone or combined
Description: (§2) L6 myotubes were incubated with UA (10 μM) at different time points. Ursolic acid induced Akt phosphorylation by 1.8, 1.7, and 1.8 fold increase at 30, 45, and 60 min. […] Treatment of L6 myotubes with UA (10 μM) or RES (100 μM) for 30 min increased AMPK phosphorylation by 1.7 and 5.3 fold, respectively.

[8] = system: Akt substrate 160 (AS160); test: AS160 phosphorylation in L6 myotubes; format: cell-based; details: UA 10 μM
Description: as §2

[9] = system: Akt; test: Akt phosphorylation in L6 myotubes; format: cell-based; details: UA 10 μM
Description: as §2

[10] = 1-3 μmol doses, assayed 48 hr after the final TPA treatment

Row | Compound | Mean [3H]-2DG per Min per Protein [ ] [1] [pmol/mg/min] | Mean [3H]-DPM corrected for CYTO B [1] [DPM/mg] | fold change from DMSO [1] [fold] | TNFα-induced NFKB activity (phosphorylation of p65) [3] | 2 μg TPA-mediated epidermal thickening [4] | 2 μg TPA-induced epidermal proliferation [6, 10] | AMPK phosphorylation increase [7] [fold] | further results
1 | CN(C)C(=N)N=C(N)N [Met, Metformin, reference compound] | 232.19 | 19718.32 | 1.94 |  |  |  |  | 
2 | Oc1ccc(C=Cc2cc(O)cc(O)c2)cc1 [RES, resveratrol] | 244.97 | 37819.44 | 2.05 | moderate effect | no effect | limited effect | 5.3 | NFKB activity (luciferase reporter) ([2]; RES alone 100 and 200 μM): partially inhibited; effect of 1 μg TPA on epidermal thickening ([4]; 2 and 3 μmol doses of RES alone): no effect; UA-mediated growth suppression with RES [5]: increases the sensitivity
3 | C[C@H]1[C@H](C)CC[C@]2(C(=O)O)CC[C@]3(C)C(=CC[C@@H]4[C@@]5(C)CC[C@H](O)C(C)(C)[C@@H]5CC[C@]43C)[C@H]12 [UA, Ursolic acid] | 257.35 | 21855.37 | 2.15 | moderate effect | dose-dependently reversed | limited effect | 1.7 | TNFα-stimulated NFKB activity (luciferase reporter) ([2]; UA alone): dose-dependently decreases; AS160 phosphorylation increase ([8]; 15 min): 1.3 fold; AS160 phosphorylation increase ([8]; 30 min): 2.5 fold; AS160 phosphorylation increase ([8]; 45 min): 1.6 fold; AS160 phosphorylation increase ([8]; 60 min): 2.3 fold; effect of 1 μg TPA on epidermal thickening ([4]; UA alone, 1-3 μmol): dose-dependently decreased; Akt phosphorylation fold increase ([9]; 30 min): 1.8 fold; Akt phosphorylation fold increase ([9]; 45 min): 1.7 fold; Akt phosphorylation fold increase ([9]; 60 min): 1.8 fold; 2 μg TPA-induced epidermal proliferation ([6]; 3 μmol of UA alone): significantly decreased; 1 μg TPA-induced epidermal proliferation ([6]; UA alone, 1-3 μmol): dose-dependently decreased
